One assay has as its system human macrophages. Kind of assay: Inhibition of the stimulation of human macrophages by ICs associating ACPAs and citrullinated fibrinogen, TNF-α in supernatants. It counts as cell-based. As to conditions: IgG ACPA+ 1.13 mg/ml; for TNFα level: citrullinated fibrinogen plates. How it is done:
The reconstitution of ICs associating ACPAs and citrullinated fibrinogen is carried out by coating flat-bottomed 96-well culture plates (Nunclon delta, Nunc, Roskilde, Denmark), under sterile conditions, with human citrullinated fibrinogen at 10 μg/ml, added at a rate of 50 μl/well and incubated overnight at 4° C. The plates are subsequently saturated in PBS, pH 7.4, 2% BSA for 1 hour at 4° C. (180 μl/well). After 3 washes in PBS, pH 7.4, 0.1% Tween-20, the wells are incubated for 2 hours at 4° C. with 100 μl of IgG ACPA+ at various concentrations (ranging from 9 to 0.28 mg/ml) diluted in PBS containing 2% BSA and 2M NaCl. Negative controls are made up in the same way, using either noncitrullinated human fibrinogen as antigen coated at the bottom of the plate, or control IgGs as antibodies. Wells coated only with citrullinated or noncitrullinated human fibrinogen and saturated in PBS, pH 7.4, 2% BSA are also used as negative controls.
After 3 washes in PBS, pH 7.4, 0.1% Tween-20, then 3 washes in PBS, the macrophages are added at a rate of 50000 viable cells/well in a volume of 200 μl. After incubation for 24 hours at 37° C. under an atmosphere containing 5% CO2, the supernatants are recovered (160 μl/well) and are rapidly frozen at −20° C. until they are analyzed. The negative control for activation is carried out using macrophages in macrophage-SFM medium alone. Macrophages placed on aggregated IgGs immobilized at the bottom of the culture plates by passive adsorption (at a rate of 100 μl of a solution at 5 μg/ml per well), or placed in the presence of bacterial lipopolysaccharide (LPS, Escherichia coli 0.55:B5 at a final concentration of 0.5 μg/ml; Sigma-Aldrich Chimie), are used as controls for the ability of the macrophages to respond to a stimulus inducing TNF-α synthesis.
An ELISA assay kit for human TNF-α, comprising a capture antibody, a detection antibody and recombinant human TNF-α for making up a calibration range of 7.8 to 500 pg/ml, was used to assay this cytokine in the culture supernatants (Human TNF-alpha BD OptEIA™ ELISA et, BD Biosciences Pharmingen, Pont-de-Claix, France).
The preparation and the stimulation of the macrophages are carried out exactly under the conditions described in example 1, except for the fact that the reconstitution of ICs is carried out with IgG ACPA+ diluted to 1.13 mg/ml in PBS containing 2M of NaCl and 2% of BSA in the presence or absence of the competitor peptide β60-74cit60, 72, 74 at two concentrations (0.8 and 4 mg/ml) added 2 h before the incubation with the citrullinated fibrinogen immobilized at the bottom of the culture plates. Competitions with citrullinated or noncitrullinated fibrinogen (0.4 mg/ml) and also with the noncitrullinated peptide β60-74 (0.8 and 4 mg/ml), are also carried out as control.

Assay [1] concerns ACPA binding to citrullinated human fibrinogen. Kind of assay: ELISA competition assay: inhibition of the reactivity of IgG ACPA+ with respect to citrullinated fibrinogen. The settings on record: IgG ACPA+ 16 μg/ml; competitor 0.006 to 1.56 mg/ml added 2 h before ELISA; FIG. 2. As to the method:
96-well microtitration plates (MaxiSorp, Nunc, VWR International, Fontenay sous Bois, France) are coated with citrullinated human fibrinogen (prepared as indicated in example 1) at a rate of 100 μl/well of a solution at 5 μg/ml in PBS, pH 7.4, overnight at 4° C. The plates are then saturated with a solution of PBS containing 2% of BSA (PBS-2% BSA) (180 μl/well). After this step, the IgG ACPA+ (prepared as indicated in example 1), diluted beforehand to 16 μg/ml in PBS-2% BSA in the presence or absence of increasing amounts of the competitor peptides α36-50cit38, 42 and/or β60-74cit60, 72, 74 (each at a concentration ranging from 0.006 to 1.56 mg/ml) added 2 h before the ELISA assay, are added. The concentration used for the IgG ACPA+ was chosen because it makes it possible to obtain an OD of between 1 and 1.5 in the absence of competitor peptide. Citrullinated or noncitrullinated fibrinogen (0.0002 to 1.56 mg/ml) and the noncitrullinated forms of the α36-50cit38, 42 and β60-74cit60, 72, 74 peptides (respectively referred to as α36-50 and β60-74) are used as control. The ACPA binding is then detected with peroxidase-labeled anti-human IgG goat IgGs (SouthernBiotech, Birmingham, Ala.) diluted to 1/9000 in PBS-2% BSA. All the incubations are carried out for 1 h at 4° C. and are followed by washes in PBS-0.1% Tween 20.
The results of this ELISA competition assay are illustrated in FIG. 2. The data are representative of 3 experiments carried out with two different preparations of IgG ACPA+. The results are expressed as degree of inhibition of the reactivity obtained in the absence of competitor peptide.

Assay [2] deals with ACPAs in sera from patients suffering from RA. Kind of assay: Reactivity of fibrin-derived citrullinated peptides with sera from RA patients having ACPAs. Format: binding, human. The settings on record: 20 sera from RA patients having detectable ACPAs. The source says: Among these peptides, those which bear immunodominant epitopes (recognized by a large number of sera from patients suffering from RA) are given in table 2. The 20 sera tested correspond to a series originating from patients suffering from RA having ACPAs detectable by means of multiple tests for detecting these autoantibodies and which, taken as a whole, make it possible to represent the heterogeneity of the specificity profiles encountered in the patients.

Non-standard residues stand in square brackets, D forms with d. No end group written: not given here. Cit = NC(=O)NCCC[C@H](N)C(=O)O

For “XPAPPPISGGGYXAX ([Cit]PAPPPISGGGY[Cit]A[Cit]-NH2) [β60-74cit60, 72, 74, fibrinogen β-chain derived citrullinated peptide, X = citrullyl residue]”, the TNFα level result in the assay on human macrophages (competitor peptide 0.8 mg/ml) is “approximately 40 pg/ml”; with human macrophages (competitor peptide 4 mg/ml), “less than 20 pg/ml”. In addition, the “effect on TNF-α production in response to the ICs (in words)” value in the assay on human macrophages (competitor 0.8 and 4 mg/ml (peptide)) is reported as “dose-dependent inhibition”. In addition, in assay [1], the “percentage inhibition of the ACPA binding to the citrullinated fibrinogen, plateau value” (“percentage inhibition” for short) was “approximately 60%”. In addition, in assay [2], the “NUMBER OF REACTIVE SERA OUT OF THE 20 TESTED” value is recorded as 14.
As to “GPXVVEXHQSACKDS (GP[Cit]VVE[Cit]HQSACKDS) [α36-50cit38, 42, fibrinogen α-chain derived citrullinated peptide, X = citrullyl residue]”, in assay [1], the “percentage inhibition” value is listed as “approximately 15%”. The “NUMBER OF REACTIVE SERA OUT OF THE 20 TESTED” value in assay [2] is on record as 12.
For the substance “SGIGTLDGFXHXHPD (SGIGTLDGF[Cit]H[Cit]HPD) [α501-515cit510, 512, fibrinogen α-chain derived citrullinated peptide, X = citrullyl residue]”, in assay [2], the “NUMBER OF REACTIVE SERA OUT OF THE 20 TESTED” value was found to be 9.
Turning to “VDIDIKIXSCXGSCS (VDIDIKI[Cit]SC[Cit]GSCS; cysteine pairing not given here) [α171-185cit178, 181, fibrinogen α-chain derived citrullinated peptide, X = citrullyl residue]”, the “NUMBER OF REACTIVE SERA OUT OF THE 20 TESTED” value in assay [2] was 9.
Take “XGHAKSXPVXGIHTS ([Cit]GHAKS[Cit]PV[Cit]GIHTS) [α621-635cit621, 627, 630, fibrinogen α-chain derived citrullinated peptide, X = citrullyl residue]”: the “NUMBER OF REACTIVE SERA OUT OF THE 20 TESTED” value in assay [2] worked out at 10.
Turning to “citrullinated fibrinogen: purified human fibrinogen incubated with rabbit skeletal muscle peptidylarginine deiminase”, in the assay with human macrophages (fibrinogen competitor 0.4 mg/ml), the TNFα level result was “approximately 20 pg/ml”. Besides, the “percentage inhibition” value in assay [1] was “approximately 80%”.

The values above are taken from US9388226B2, “Peptides modulating the activity of macrophages, useable for the treatment of rheumatoid arthritis” (Universite Paul Sabatier, priority 2006, dated 2016).
